Results from patent publication US20250025443A1, “COMPOUNDS AND METHODS FOR TREATING CORONA VIRUSES” (CLEAR CREEK BIO, INC., priority 2021, published 2025).
Where two headings read alike, the source gives them in different places.

Biological target: SARS-CoV-2 Papain-Like Protease (PLpro) (Severe acute respiratory syndrome coronavirus 2 (2019-nCoV) (SARS-CoV-2), UniProt P0DTD1)
Assay: biochemical
Settings: read-out: PLpro IC50
[1] = SARS-CoV-2 PLpro enzymatic fluorescence assay
[2] = PLpro enzymatic fluorescence assay, class symbols

## Cc1ccc(C2CCNC2)cc1C(=O)NC1(c2cccc3ccccc23)CC1 (stereo not shown) [Compound 413, 2-Methyl-N-(1-(naphthalen-1-yl)cyclopropyl)-5-(pyrrolidin-3-yl)benzamide]
[1]
  IC50: < 100 nM

## Cc1ccc(OC[C@H]2C[C@H](O)CN2)cc1C(=O)NC1(c2cccc3ccccc23)CC1 [Compound 414, 5-(((2R,4S)-4-Hydroxypyrrolidin-2-yl)methoxy)-2-methyl-N-(1-(naphthalen-1-yl)cyclopropyl)benzamide]
[1]
  IC50: < 100 nM

## Cc1ccc(OCCN(C)C)cc1C(=O)NC1(c2cccc3[nH]c4ccccc4c23)CC1 [Compound 415, N-(1-(9H-Carbazol-4-yl)cyclopropyl)-5-(2-(dimethylamino)ethoxy)-2-methylbenzamide]
[1]
  IC50: 100 to 1000 nM

## Cc1ccc(OCCN(C)C)cc1C(=O)NC1(c2cccc3ccc(O)cc23)CC1 [Compound 417, 5-(2-(Dimethylamino)ethoxy)-N-(1-(7-hydroxynaphthalen-1-yl)cyclopropyl)-2-methylbenzamide]
[1]
  IC50: < 100 nM

## Cc1ccc(N2CCN(C)CC2)cc1C(=O)NC1(c2cccc3ccccc23)CC1 [Compound 418, 2-Methyl-5-(4-methylpiperazin-1-yl)-N-(1-(naphthalen-1-yl)cyclopropyl)benzamide]
[1]
  IC50: < 100 nM

## COc1cc(C2(NC(=O)c3cc(OC[C@@H]4CCCN4)ccc3C)CC2)c2ccccc2c1 [Compound 419, (S)-N-(1-(3-Methoxynaphthalen-1-yl)cyclopropyl)-2-methyl-5-(pyrrolidin-2-ylmethoxy)benzamide]
[1]
  IC50: < 100 nM

## Cc1ccc(OCCN(C)C)cc1C(=O)NC1(c2cc(-c3cccs3)cc3ccccc23)CC1 [Compound 420, 5-(2-(Dimethylamino)ethoxy)-2-methyl-N-(1-(3-(thiophen-2-yl)naphthalen-1-yl)cyclopropyl)benzamide]
[1]
  IC50: < 100 nM

## Cc1ccc(N(C)CCN(C)C)cc1C(=O)NC1(c2cccc3ccccc23)CC1 [Compound 421]
[1]
  IC50: < 100 nM

## CC[S+]([O-])c1cc(C2(NC(=O)c3cc(OCCN(C)C)ccc3C)CC2)c2ccccc2c1 (stereo not shown) [Compound 423, 5-(2-(Dimethylamino)ethoxy)-N-(1-(3-(ethylsulfinyl)naphthalen-1-yl)cyclopropyl)-2-methylbenzamide]
[1]
  IC50: < 100 nM

## Cc1ccc(OCCNS(C)(=O)=O)cc1C(=O)NC1(c2cccc3ccccc23)CC1 [Compound 424, 2-Methyl-5-(2-(methylsulfonamido)ethoxy)-N-(1-(naphthalen-1-yl)cyclopropyl)benzamide]
[1]
  IC50: 100 to 1000 nM

## CC(=O)NCCOc1ccc(C)c(C(=O)NC2(c3cccc4ccccc34)CC2)c1 [Compound 425, 5-(2-Acetamidoethoxy)-2-methyl-N-(1-(naphthalen-1-yl)cyclopropyl)benzamide]
[1]
  IC50: 100 to 1000 nM

## CNCc1nc2cc(C)c(C(=O)NC3(c4cccc5ccccc45)CC3)cc2o1 [Compound 426, 5-Methyl-2-((methylamino)methyl)-N-(1-(naphthalen-1-yl)cyclopropyl)benzo[d]oxazole-6-carboxamide]
[1]
  IC50: 100 to 1000 nM

## Cc1ccc(OCC2CN(C)C2)cc1C(=O)NC1(c2cccc3ccccc23)CC1 [Compound 427, 2-Methyl-5-((1-methylazetidin-3-yl)methoxy)-N-(1-(naphthalen-1-yl)cyclopropyl)benzamide]
[2]
  IC50: < 100 nM

## COC(=O)CCc1ccc(C)c(C(=O)NC2(c3cccc4ccccc34)CC2)c1 [Compound 431, Methyl 3-(4-methyl-3-((1-(naphthalen-1-yl)cyclopropyl)carbamoyl)phenyl) propanoate]
[1]
  IC50: 100 to 1000 nM

## Cc1ccc(OCC2CCN2C)cc1C(=O)NC1(c2cccc3c2OCCO3)CC1 (stereo not shown) [Compound 432, N-(1-(2,3-Dihydrobenzo[b][1,4]dioxin-5-yl)cyclopropyl)-2-methyl-5-((1-methylazetidin-2-yl)methoxy)benzamide]
[1]
  IC50: 100 to 1000 nM

## Cc1ccc(OCC2CCN2C)cc1C(=O)NC1(c2cc(O)cc3ccccc23)CC1 (stereo not shown) [Compound 433, N-(1-(3-Hydroxynaphthalen-1-yl)cyclopropyl)-2-methyl-5-((1-methylazetidin-2-yl)methoxy)benzamide]
[1]
  IC50: < 100 nM

## COc1cc(C2(NC(=O)c3cc(OCCN(C)C)ccc3C)CC2)c2cccnc2c1 [Compound 434, 5-(2-(Dimethylamino)ethoxy)-N-(1-(7-methoxyquinolin-5-yl)cyclopropyl)-2-methylbenzamide]
[1]
  IC50: < 100 nM

## Cc1ccc(COC2CNC2)cc1C(=O)NC1(c2cccc3ccccc23)CC1 [Compound 435, 5-((Azetidin-3-yloxy)methyl)-2-methyl-N-(1-(naphthalen-1-yl)cyclopropyl)benzamide]
[1]
  IC50: 100 to 1000 nM

## Cc1ccc(OCC2CCN2C)cc1C(=O)NC1(c2cccc3nc(Cl)ccc23)CC1 (stereo not shown) [Compound 436, N-(1-(2-Chloroquinolin-5-yl)cyclopropyl)-2-methyl-5-((1-methylazetidin-2-yl)methoxy)benzamide]
[1]
  IC50: < 100 nM

## Cc1ccc(OC[C@H]2C[C@@H](F)CN2C)cc1C(=O)NC1(c2cccc3ccccc23)CC1 [Compound 437, 5-(((2R,4R)-4-Fluoro-1-methylpyrrolidin-2-yl)methoxy)-2-methyl-N-(1-(naphthalen-1-yl)cyclopropyl)benzamide]
[1]
  IC50: < 100 nM

## Cc1ccc(OCCN(C)C)cc1C(=O)NC1(c2cc(C#N)cc3ccccc23)CC1 [Compound 443, N-(1-(3-Cyanonaphthalen-1-yl)cyclopropyl)-5-(2-(dimethylamino)ethoxy)-2-methylbenzamide]
[1]
  IC50: < 100 nM

## Cc1ccc(OCC2CCN2C)cc1C(=O)NC1(c2cccc3ccc(F)cc23)CC1 (stereo not shown) [Compound 444, N-(1-(7-Fluoronaphthalen-1-yl)cyclopropyl)-2-methyl-5-((1-methylazetidin-2-yl)methoxy)benzamide]
[2]
  IC50: < 100 nM

## COc1cc(C2(NC(=O)c3cc(OCC(C)N)ccc3C)CC2)c2ccccc2c1 (stereo not shown) [Compound 445, 5-(2-Aminopropoxy)-N-(1-(3-methoxynaphthalen-1-yl)cyclopropyl)-2-methylbenzamide]
[1]
  IC50: < 100 nM

## Cc1ccc(OCC(C)N)cc1C(=O)NC1(c2cccc3cnccc23)CC1 (stereo not shown) [Compound 446, 5-(2-Aminopropoxy)-N-(1-(isoquinolin-5-yl)cyclopropyl)-2-methylbenzamide]
[2]
  IC50: < 100 nM

## Cc1ccc(COC2CN(C)C2)cc1C(=O)NC1(c2cccc3ccccc23)CC1 [Compound 447, 2-Methyl-5-(((1-methylazetidin-3-yl)oxy)methyl)-N-(1-(naphthalen-1-yl)cyclopropyl)benzamide]
[1]
  IC50: 100 to 1000 nM

## C#CC(NC(=O)c1cc(OCC2CCN2C)ccc1C)c1cccc2ccccc12 (stereo not shown) [Compound 448, 2-Methyl-5-((1-methylazetidin-2-yl)methoxy)-N-(1-(naphthalen-1-yl)prop-2-yn-1-yl)benzamide]
[1]
  IC50: 1000 to 5000 nM

## Cc1ccc(CCC2CCN2)cc1C(=O)NC1(c2cccc3ccccc23)CC1 (stereo not shown) [Compound 449, 5-(2-(Azetidin-2-yl)ethyl)-2-methyl-N-(1-(naphthalen-1-yl)cyclopropyl)benzamide]
[1]
  IC50: < 100 nM

## COc1cc(C2(NC(=O)c3cc(OCC4CCN4C)ccc3C)COC2)c2ccccc2c1 (stereo not shown) [Compound 450, N-(3-(3-Methoxynaphthalen-1-yl)oxetan-3-yl)-2-methyl-5-((1-methylazetidin-2-yl)methoxy)benzamide]
[1]
  IC50: < 100 nM

## CNCCOc1ccc(C)c(C(=O)NC2(c3cccc4ccccc34)COC2)c1 [Compound 451, 2-Methyl-5-(2-(methylamino)ethoxy)-N-(3-(naphthalen-1-yl)oxetan-3-yl)benzamide]
[1]
  IC50: < 100 nM

## Cc1ccc(CCC(N)=O)cc1C(=O)NC1(c2cccc3ccccc23)CC1 [Compound 452, 5-(3-Amino-3-oxopropyl)-2-methyl-N-(1-(naphthalen-1-yl)cyclopropyl)benzamide]
[1]
  IC50: 100 to 1000 nM

## CNCCOc1ccc(C)c(C(=O)NC2(c3cccc4ccccc34)CNC2)c1 [Compound 453, 2-Methyl-5-(2-(methylamino)ethoxy)-N-(3-(naphthalen-1-yl)azetidin-3-yl)benzamide]
[1]
  IC50: > 5000 nM

## Cc1ccc(OCC2CCN2C)cc1C(=O)NC1(c2nccc3ccccc23)CC1 (stereo not shown) [Compound 454, N-(1-(Isoquinolin-1-yl)cyclopropyl)-2-methyl-5-((1-methylazetidin-2-yl)methoxy)benzamide]
[2]
  IC50: 100 to 1000 nM

## Cc1ccc(CCC2CCN2C)cc1C(=O)NC1(c2cccc3ccccc23)CC1 (stereo not shown) [Compound 455, 2-Methyl-5-(2-(1-methylazetidin-2-yl)ethyl)-N-(1-(naphthalen-1-yl)cyclopropyl)benzamide]
[1]
  IC50: < 100 nM

## COc1cc2c(C3(NC(=O)c4cc(OCC5CCN5C)ccc4C)CC3)cccc2cn1 (stereo not shown) [Compound 456, N-(1-(3-Methoxyisoquinolin-5-yl)cyclopropyl)-2-methyl-5-((1-methylazetidin-2-yl)methoxy)benzamide]
[2]
  IC50: < 100 nM

## Cc1ccc(OCC2CCN2C)cc1C(=O)NC1(c2c(C(C)C)ccc3ccccc23)CC1 (stereo not shown) [Compound 457, N-(1-(2-Isopropylnaphthalen-1-yl)cyclopropyl)-2-methyl-5-((1-methylazetidin-2-yl)methoxy)benzamide]
[1]
  IC50: 100 to 1000 nM

## Cc1ccc(OCC2CCN2C)cc1C(=O)NC1(c2c(C)ccc3ccccc23)CC1 (stereo not shown) [Compound 458, 2-Methyl-5-((1-methylazetidin-2-yl)methoxy)-N-(1-(2-methylnaphthalen-1-yl)cyclopropyl)benzamide]
[2]
  IC50: < 100 nM

## C#CC(NC(=O)c1cc(N)ccc1C)c1cccc2ccccc12 (stereo not shown) [Compound 459, 5-Amino-2-methyl-N-(1-(naphthalen-1-yl)prop-2-yn-1-yl)benzamide]
[1]
  IC50: > 5000 nM

## Cc1ccc(OCC2CCN2C)cc1C(=O)NC1(c2cc(Br)cc3ccccc23)CC1 (stereo not shown) [Compound 461, N-(1-(3-Bromonaphthalen-1-yl)cyclopropyl)-2-methyl-5-((1-methylazetidin-2-yl)methoxy)benzamide]
[1]
  IC50: < 100 nM

## COc1cc(C2(NC(=O)c3cc(OC[C@@H]4CCCN4)ccc3C)CC2)c2cccnc2c1 [Compound 462, (S)-N-(1-(7-Methoxyquinolin-5-yl)cyclopropyl)-2-methyl-5-(pyrrolidin-2-ylmethoxy)benzamide]
[1]
  IC50: < 100 nM

## Cc1ccc(N2CCC(N)CC2)cc1C(=O)NC1(c2cccc3ccccc23)CC1 [Compound 463, 5-(4-Aminopiperidin-1-yl)-2-methyl-N-(1-(naphthalen-1-yl)cyclopropyl)benzamide]
[1]
  IC50: 100 to 1000 nM
